# Laboratory results taken from patent US20260365670A1, “EGFR INHIBITORS AND USES THEREOF” (DIZAL (JIANGSU) PHARMACEUTICAL CO., LTD., priority 2022, published 2026).
# Where two headings read alike, the source gives them in different places.
# Assays:
# [1] = biological target: T1, EGFR (C797S L858R) (Homo sapiens, UniProt P00533, C797S/L858R); experiment: Inhibition of EGFR (C797S L858R) biochemical enzymatic activity (HTRF); settings: 1 mM ATP
# T1 construct: purchased signalchem
# Description: (§1) Biological Example 1: Inhibition of EGFR WT and Mutant Biochemical Enzymatic Activity
# (§2) The inhibition potency of compounds against these enzymes was assessed using Homogenous Time Resolved Fluorescence approach (HTRF, CisBio. Cat No. 62TKOPEJ).
# (§3) Inhibitory effects of the compounds were determined by measuring the enzymatic activity of EGFR enzyme phosphorylates 1 μM TK Substrate-biotin in the presence of 1 mM adenosine-5′-triphosphate (ATP) and varying concentrations of the test compound. The enzyme reaction buffer contains 5 mM MgCl2, 1 mM MnC12, 0.01% CHAPS, 1 mM dithiothreitol (DTT), 0.5% dimethylsulfoxide (DMSO), and 1× supplemented enzymatic buffer. The WT and mutant EGFR enzymes (SignalChem) were added to plates containing inhibitors, followed by activation of the kinase reaction by addition of ATP and peptide substrates. After incubation for 1 h at room temperature, the reaction was stopped by the addition of the detection reagent mix containing EDTA. The fluorescence was measured at 615 nm and 665 nm, respectively with excitation wavelength at 320 nm. The calculated signal ratio of 665 nm/615 nm is proportional to the kinase activity. The concentration of compound producing 50% inhibition of the respective kinase (IC50) was calculated using four-parameter logistic fit with XL-FIT.
# [2] = biological target: T2, EGFR L858R (Homo sapiens, UniProt P00533, L858R); experiment: Inhibition of EGFR L858R biochemical enzymatic activity (HTRF); settings: 1 mM ATP
# T2 construct: purchased Carna Bio
# T2 sequence (P00533 25-1210 L858R): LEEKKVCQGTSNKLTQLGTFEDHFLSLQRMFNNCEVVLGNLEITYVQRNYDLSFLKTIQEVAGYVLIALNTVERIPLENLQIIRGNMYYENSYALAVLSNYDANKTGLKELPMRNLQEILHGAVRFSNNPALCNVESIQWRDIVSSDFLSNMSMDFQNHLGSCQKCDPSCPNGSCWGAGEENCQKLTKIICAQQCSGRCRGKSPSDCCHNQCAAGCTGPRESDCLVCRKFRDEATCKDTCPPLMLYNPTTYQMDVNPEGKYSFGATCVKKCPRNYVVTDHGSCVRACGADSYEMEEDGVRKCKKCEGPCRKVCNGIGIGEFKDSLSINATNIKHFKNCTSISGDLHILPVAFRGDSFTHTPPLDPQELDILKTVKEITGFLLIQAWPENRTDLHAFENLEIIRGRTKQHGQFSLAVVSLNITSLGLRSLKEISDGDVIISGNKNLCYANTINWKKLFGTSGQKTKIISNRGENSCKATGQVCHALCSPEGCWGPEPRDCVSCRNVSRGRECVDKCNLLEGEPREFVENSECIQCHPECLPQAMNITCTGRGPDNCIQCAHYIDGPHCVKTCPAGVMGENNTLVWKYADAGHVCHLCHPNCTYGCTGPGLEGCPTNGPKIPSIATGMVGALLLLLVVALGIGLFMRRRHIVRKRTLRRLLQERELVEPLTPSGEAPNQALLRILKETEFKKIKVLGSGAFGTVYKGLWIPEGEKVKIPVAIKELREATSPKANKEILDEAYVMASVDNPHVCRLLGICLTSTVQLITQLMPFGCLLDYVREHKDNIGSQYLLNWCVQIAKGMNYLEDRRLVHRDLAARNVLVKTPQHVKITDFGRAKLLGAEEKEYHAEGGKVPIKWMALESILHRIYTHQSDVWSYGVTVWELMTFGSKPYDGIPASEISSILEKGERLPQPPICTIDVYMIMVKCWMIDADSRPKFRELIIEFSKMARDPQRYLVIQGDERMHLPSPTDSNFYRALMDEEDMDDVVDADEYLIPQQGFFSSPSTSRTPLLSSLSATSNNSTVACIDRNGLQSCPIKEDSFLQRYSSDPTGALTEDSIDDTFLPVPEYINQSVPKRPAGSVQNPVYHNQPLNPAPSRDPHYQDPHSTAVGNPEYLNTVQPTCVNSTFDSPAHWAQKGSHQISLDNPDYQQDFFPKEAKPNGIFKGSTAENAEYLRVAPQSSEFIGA
# Description: as §1, §2, §3
# [3] = biological target: T3, EGFR Exon19Del/T790M (Homo sapiens, UniProt P00533, DEL746-750/T790M); experiment: Inhibition of EGFR Exon19Del/T790M biochemical enzymatic activity (HTRF); settings: 1 mM ATP
# T3 construct: purchased Carna Bio
# T3 sequence (P00533 with tags, fused parts or gaps DEL746-750/T790M limits assumed): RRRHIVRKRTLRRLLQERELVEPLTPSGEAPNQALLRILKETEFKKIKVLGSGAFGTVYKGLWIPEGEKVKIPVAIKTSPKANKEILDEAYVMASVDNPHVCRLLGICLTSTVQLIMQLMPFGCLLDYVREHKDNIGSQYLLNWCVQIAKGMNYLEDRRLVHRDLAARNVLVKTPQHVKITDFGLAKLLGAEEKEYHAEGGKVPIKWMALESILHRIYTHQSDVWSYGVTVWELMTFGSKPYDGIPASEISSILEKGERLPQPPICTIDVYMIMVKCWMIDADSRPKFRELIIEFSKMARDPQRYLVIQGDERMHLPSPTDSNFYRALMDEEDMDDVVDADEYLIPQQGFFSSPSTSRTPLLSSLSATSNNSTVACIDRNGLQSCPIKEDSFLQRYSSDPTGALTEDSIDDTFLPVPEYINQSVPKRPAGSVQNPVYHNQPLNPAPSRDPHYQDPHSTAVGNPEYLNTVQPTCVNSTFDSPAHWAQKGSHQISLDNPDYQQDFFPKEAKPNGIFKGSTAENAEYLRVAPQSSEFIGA
# Description: as §1, §2, §3
# [4] = test system: Ba/F3 cells expressing EGFR mutations; experiment: Cell proliferation assay, Ba/F3 cells expressing EGFR mutations (CellTiter-Glo, 72 hours); assay type: cell-based
# Description: (§4) Biological Example 2: Cell Proliferation Assays
# (§5) Ba/F3 cells expressing EGFR mutations were seeded in 384-well plates at 5000 cells/well in RPMI1640 medium containing […]. PC-9 at 500 cells/well was seeded into 384-well plates in RPMI1640 medium with 10% FBS. After overnight incubation, the assay plates were dosed with compounds at a series of concentrations. Alongside dosing the assay plates, the day 0 plate was processed using CellTiter-Glo® Luminescent Cell Viability Assay (Promega) to measure the number of viable cells (G0). The assay plates were further incubated for 72 hours and the number of viable cells (G3) was measured. The percentage of proliferation was calculated as: […]=100×(G3 value of sample well−G0 value)/(G3 value of DMSO control−G0 value). The concentration of compound producing 50% proliferation inhibition (GI50) was further calculated in best-fit curves using XLFit software. N/A=not available.
# [5] = biological target: T4, EGFR wild type (Homo sapiens, UniProt P00533); experiment: Inhibition of EGFR wild type biochemical enzymatic activity (HTRF); settings: 1 mM ATP
# T4 construct: purchased Carna Bio
# Description: as §1, §2, §3
# [6] = biological target: T5, EGFR L858R/T790M (Homo sapiens, UniProt P00533, L858R/T790M); experiment: Inhibition of EGFR L858R/T790M biochemical enzymatic activity (HTRF); settings: 1 mM ATP
# T5 construct: purchased Carna Bio
# Description: as §1, §2, §3
# [7] = biological target: T6, EGFR Exon19Del (Homo sapiens, UniProt P00533, DEL746-750); experiment: Inhibition of EGFR Exon19Del biochemical enzymatic activity (HTRF)
# T6 construct: purchased Carna Bio
# T6 sequence (P00533 with tags, fused parts or gaps DEL746-750 limits assumed): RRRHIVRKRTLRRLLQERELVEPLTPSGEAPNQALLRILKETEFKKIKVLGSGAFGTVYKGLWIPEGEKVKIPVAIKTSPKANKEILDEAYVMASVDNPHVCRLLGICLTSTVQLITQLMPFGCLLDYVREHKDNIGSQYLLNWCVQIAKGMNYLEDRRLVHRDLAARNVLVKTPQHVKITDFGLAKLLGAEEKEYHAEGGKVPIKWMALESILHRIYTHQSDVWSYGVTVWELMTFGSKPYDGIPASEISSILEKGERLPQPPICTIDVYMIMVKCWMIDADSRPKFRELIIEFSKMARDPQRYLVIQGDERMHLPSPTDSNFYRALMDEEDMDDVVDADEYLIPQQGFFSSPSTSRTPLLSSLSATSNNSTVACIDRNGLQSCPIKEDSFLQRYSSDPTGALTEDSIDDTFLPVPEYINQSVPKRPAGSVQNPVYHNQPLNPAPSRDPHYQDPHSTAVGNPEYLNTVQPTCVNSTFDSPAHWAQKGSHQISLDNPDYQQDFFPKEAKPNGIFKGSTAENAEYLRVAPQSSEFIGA
# Description: as §1, §2, §3
# [8] = biological target: T7, EGFR[T790M/C797S/d746-750] (Homo sapiens, UniProt P00533, C797S/DEL746-750/T790M); experiment: Inhibition of EGFR[T790M/C797S/d746-750] biochemical enzymatic activity (HTRF)
# T7 construct: purchased Carna Bio
# T7 sequence (P00533 with tags, fused parts or gaps DEL746-750/T790M/C797S limits assumed): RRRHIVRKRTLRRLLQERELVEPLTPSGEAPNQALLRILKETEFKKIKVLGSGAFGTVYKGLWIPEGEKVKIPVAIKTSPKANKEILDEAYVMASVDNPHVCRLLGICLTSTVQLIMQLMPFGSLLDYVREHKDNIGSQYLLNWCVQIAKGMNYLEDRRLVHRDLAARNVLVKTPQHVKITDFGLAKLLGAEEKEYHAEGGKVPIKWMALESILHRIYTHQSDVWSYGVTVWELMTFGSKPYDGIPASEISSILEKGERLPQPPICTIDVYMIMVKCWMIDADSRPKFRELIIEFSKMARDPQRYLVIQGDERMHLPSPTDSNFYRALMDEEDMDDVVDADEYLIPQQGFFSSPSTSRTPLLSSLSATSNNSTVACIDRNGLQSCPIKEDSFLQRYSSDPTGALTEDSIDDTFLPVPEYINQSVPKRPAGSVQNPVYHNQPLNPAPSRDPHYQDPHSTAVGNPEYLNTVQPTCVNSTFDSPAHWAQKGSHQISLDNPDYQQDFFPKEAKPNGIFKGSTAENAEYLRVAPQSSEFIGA
# Description: as §1, §2, §3
# [9] = biological target: T8, EGFR (d746-750 C797S) (Homo sapiens, UniProt P00533, C797S/DEL746-750); experiment: Inhibition of EGFR (d746-750 C797S) biochemical enzymatic activity (HTRF); settings: 1 mM ATP
# T8 construct: purchased signalchem
# T8 sequence (P00533 with tags, fused parts or gaps DEL746-750/C797S limits assumed): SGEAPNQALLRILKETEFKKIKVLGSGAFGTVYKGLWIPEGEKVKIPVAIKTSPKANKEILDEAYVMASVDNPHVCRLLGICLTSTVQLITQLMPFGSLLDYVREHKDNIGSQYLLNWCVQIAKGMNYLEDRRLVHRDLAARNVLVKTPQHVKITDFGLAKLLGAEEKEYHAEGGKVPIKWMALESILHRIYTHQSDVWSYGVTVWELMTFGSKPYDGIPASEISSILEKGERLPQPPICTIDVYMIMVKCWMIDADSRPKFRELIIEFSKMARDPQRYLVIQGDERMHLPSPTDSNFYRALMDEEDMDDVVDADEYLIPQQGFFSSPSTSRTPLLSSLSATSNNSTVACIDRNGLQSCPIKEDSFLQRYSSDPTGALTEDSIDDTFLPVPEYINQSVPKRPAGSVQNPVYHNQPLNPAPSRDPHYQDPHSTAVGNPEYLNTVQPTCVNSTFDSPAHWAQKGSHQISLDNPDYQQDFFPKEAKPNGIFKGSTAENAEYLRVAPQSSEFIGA
# Description: as §1, §2, §3
# [10] = test system: PC-9; experiment: Cell proliferation assay, PC-9 cells (CellTiter-Glo, 72 hours); assay type: cell-based; settings: PC9 cells
# Description: as §4, §5
# [11] = biological target: T9, EGFR[T790M/C797S/L858R] (Homo sapiens, UniProt P00533, C797S/L858R/T790M); experiment: Inhibition of EGFR[T790M/C797S/L858R] biochemical enzymatic activity (HTRF); settings: 1 mM ATP
# T9 construct: purchased Carna Bio
# T9 sequence (P00533 25-1210 T790M/C797S/L858R): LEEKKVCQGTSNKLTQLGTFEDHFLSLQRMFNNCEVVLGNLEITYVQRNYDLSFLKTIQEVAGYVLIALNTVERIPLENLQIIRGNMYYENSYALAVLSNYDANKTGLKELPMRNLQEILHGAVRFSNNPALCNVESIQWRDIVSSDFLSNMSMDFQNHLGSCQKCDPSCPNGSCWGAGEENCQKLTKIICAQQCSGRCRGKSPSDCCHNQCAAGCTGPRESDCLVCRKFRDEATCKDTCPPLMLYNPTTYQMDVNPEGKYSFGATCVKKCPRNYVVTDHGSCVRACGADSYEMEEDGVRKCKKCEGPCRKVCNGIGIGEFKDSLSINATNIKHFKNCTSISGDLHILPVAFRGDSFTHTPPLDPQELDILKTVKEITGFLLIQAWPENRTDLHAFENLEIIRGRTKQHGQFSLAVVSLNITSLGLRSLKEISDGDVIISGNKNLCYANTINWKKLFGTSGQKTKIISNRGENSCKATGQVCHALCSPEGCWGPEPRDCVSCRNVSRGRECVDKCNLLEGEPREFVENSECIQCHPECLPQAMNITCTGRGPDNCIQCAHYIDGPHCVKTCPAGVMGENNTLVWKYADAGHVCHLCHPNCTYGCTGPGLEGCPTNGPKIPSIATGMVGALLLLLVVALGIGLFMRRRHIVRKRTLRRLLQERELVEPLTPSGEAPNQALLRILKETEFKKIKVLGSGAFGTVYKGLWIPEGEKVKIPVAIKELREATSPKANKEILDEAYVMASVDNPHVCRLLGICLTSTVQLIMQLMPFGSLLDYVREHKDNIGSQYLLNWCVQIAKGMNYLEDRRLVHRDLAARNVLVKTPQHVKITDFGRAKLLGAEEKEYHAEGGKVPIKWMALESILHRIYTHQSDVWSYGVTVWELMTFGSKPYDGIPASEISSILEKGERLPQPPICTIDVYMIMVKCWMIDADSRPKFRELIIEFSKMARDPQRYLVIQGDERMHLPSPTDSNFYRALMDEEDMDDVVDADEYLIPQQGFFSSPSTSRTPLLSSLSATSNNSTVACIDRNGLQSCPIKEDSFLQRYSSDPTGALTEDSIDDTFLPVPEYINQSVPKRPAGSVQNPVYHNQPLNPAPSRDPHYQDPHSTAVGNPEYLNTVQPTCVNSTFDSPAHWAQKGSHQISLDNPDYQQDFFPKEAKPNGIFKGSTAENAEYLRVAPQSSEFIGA
# Description: as §1, §2, §3
# [12] = EGFR L858-C797S, 1 h, room temperature, read-out: IC50 (nM) @L858-C797S
# [13] = 1 h, room temperature, read-out: IC50 (nM) @L858R
# [14] = EGFR Del19-T790M, 1 h, room temperature, read-out: IC50 (nM) @Del19-T790M
# [15] = BaF3 cells, EGFR DEL19-C797S, CellTiter-Glo, read-out: DEL19-C797S/BaF3 GI50
# [16] = BaF3 cells, EGFR DEL19-T790-C797S, CellTiter-Glo, read-out: DEL19-T790-C797S/BaF3 GI50
# [17] = BaF3 cells, EGFR L858R, CellTiter-Glo, read-out: L858R/BaF3 GI50
# [18] = BaF3 cells, EGFR L858R-C797S, CellTiter-Glo, read-out: L858R-C797S/BaF3 GI50
# [19] = BaF3 cells, EGFR L858R-T790-C797S, CellTiter-Glo, read-out: L858R-T790-C797S/BaF3 GI50
# [20] = BaF3 cells, EGFR L858R-T790M, CellTiter-Glo, read-out: L858R-T790M/BaF3 GI50
# [21] = EGFR DEL19-T790M, CellTiter-Glo, read-out: DEL19-T790M GI50
# [22] = EGFR WT, 1 h, room temperature, read-out: IC50 (nM) @WT
# [23] = EGFR L858R-T790M, 1 h, room temperature, read-out: IC50 (nM) @L858R-T790M
# [24] = EGFR Del19, 1 mM ATP, 1 h, room temperature, read-out: IC50 @Del19
# [25] = EGFR T790M-C797S-Del19, 1 mM ATP, 1 h, room temperature, read-out: IC50 (nM) @T790M - C797S - Del19
# [26] = EGFR Del19-C797S, 1 h, room temperature, read-out: IC50 (nM) @Del19-C797S
# [27] = CellTiter-Glo, read-out: PC9 GI50
# [28] = EGFR T790M-C797S-L858R, 1 h, room temperature, read-out: IC50 (nM) @T790M- C797S - L858R
"IC50 [1, 12] [nM]","IC50 [2, 13] [nM]","IC50 [3, 14] [nM]","GI50 [4, 15] [nM]","GI50 [4, 16] [nM]","GI50 [4, 17] [nM]","GI50 [4, 18] [nM]","GI50 [4, 19] [nM]","GI50 [4, 20] [nM]","GI50 [4, 21] [nM]","IC50 [5, 22] [nM]","IC50 [6, 23] [nM]","IC50 [7, 24] [nM]","IC50 [8, 25] [nM]","IC50 [9, 26] [nM]","GI50 [10, 27] [nM]","IC50 [11, 28] [nM]",Compound,other results
> 5000,> 5000,> 5000,251,999,990,360,1910,1120,882,> 5000,> 5000,1430,> 5000,1580,993,> 5000,"CN1CCC2CN(c3ccc4nc5n(c4c3)C34CCC(CN(CCOc6c(cnn6C)-c6cc(cn(C)c6=O)C(=O)N5)C3)C4)CC21 (single isomer, unassigned) [Example A79A]",–
–,–,–,–,–,–,–,–,–,–,–,–,–,–,–,–,–,"Cc1cc2cc(n1)-c1cnn(C)c1OCCN1CC3CCC(C3)(C1)n1c(nc3ccc(N4CCC(N(C)C)CC4)cc31)NC2=O (single isomer, unassigned) [Example B40A, 5-[4-(dimethylamino)piperidin-1-yl]-15,21-dimethyl-23-oxa-2,9,11,16,20,21,26-heptaazaheptacyclo[24.4.1.1^{1,28}.1^{13,17}.0^{2,10}.0^{3,8}.0^{18,22}]tritriaconta-3,5,7,9,13,15,17(33),18(22),19-nonaen-12-one]","IC50 ([1]; IC50 @L858-C797S, EGFR (C797S L858R), 1 h at room temperature): > 5000 nM; IC50 ([2]; IC50 @L858R, 1 h at room temperature): > 5000 nM; IC50 ([3]; IC50 @Del19-T790M, EGFR Exon19Del/T790M, 1 h at room temperature): 430 nM; GI50 ([4]; BaF3 cells, EGFR DEL19 - C797S, read-out: GI50 DEL19 - C797S/BaF3): 212 nM; GI50 ([4]; BaF3 cells, EGFR DEL19 - T790-C797S, read-out: GI50 DEL19 - T790-C797S/BaF3): 164 nM; GI50 ([4]; BaF3 cells, EGFR L858R - C797S, read-out: GI50 L858R - C797S/BaF3): 312 nM; GI50 ([4]; BaF3 cells, EGFR L858R - T790-C797S, read-out: GI50 L858R - T790-C797S/BaF3): 41 nM; GI50 ([4]; BaF3 cells, EGFR L858R - T790M, read-out: GI50 L858R - T790M/BaF3): 194 nM; GI50 ([4]; BaF3 cells, EGFR L858R, read-out: GI50 L858R/BaF3): 877 nM; GI50 ([4]; EGFR DEL19 - T790M, read-out: GI50 DEL19 - T790M): 258 nM; IC50 ([5]; IC50 @WT, EGFR wild type, 1 h at room temperature): > 5000 nM; IC50 ([6]; IC50 @L858R-T790M, EGFR L858R/T790M, 1 h at room temperature): > 5000 nM; IC50 ([7]; IC50 @Del19, EGFR Exon19Del, 1 mM ATP, 1 h at room temperature): > 5000 nM; IC50 ([8]; IC50 @T790M - C797S - Del19, EGFR[T790M/C797S/d746-750], 1 mM ATP, 1 h at room temperature): 123 nM; IC50 ([9]; IC50 @Del19-C797S, EGFR (d746-750 C797S), 1 h at room temperature): 2480 nM; GI50 ([10]; read-out: GI50 PC9): 950 nM; IC50 ([11]; IC50 @T790M- C797S - L858R, EGFR[T790M/C797S/L858R], 1 h at room temperature): > 5000 nM"
2140,1210,1410,96,186,108,76,129,137,200,341,> 5000,310,629,226,92,> 5000,"CN1CCC2(CCN(c3ccc4nc5n(c4c3)C34CCC(CN(CCOc6c(cnn6C)-c6cc(cn(C)c6=O)C(=O)N5)C3)C4)CC2)C1 (single isomer, unassigned) [Example A82A]",–
